The star is where a group is joined. Decanoyl = CCCCCCCCCC(=O)*; CH2Cl = ClC*

Test [1] deals with proprotein convertases (PCs). Put plainly: N-cadherin proteolytic processing assay, transfected HeLa cells. The note with it: HeLa cells transfected with N-cadherin +/- FL-PC5A; 50 μM dec-cmk; proN antibody. The test is classed as cell-based. As for the experimental part: (§1) To assess N-cadherin proteolytic processing, we devised an assay where N-terminal cleavage products were detected in the conditioned medium of cells using the proN antibody. Cells were transiently transfected with the appropriate construct(s), the conditioned medium was collected 36 h later, concentrated, and total protein concentration was determined using a Lowry assay (Biorad). Conditioned medium (15 μg protein) was run on a 15% gel, and cleavage products detected were as follows: a 17 kDa band corresponded to cleavage at the consensus site, and a 20 kDa band represented cleavage at the second site.

The test system of test [2] is proprotein convertases (PCs). Put plainly: N-cadherin proteolytic processing assay, transfected U251 and U343 glioma cells. To be noted: U251 and U343 cells transfected with N-cadherin; dec-cmk in culture medium. In kind it is cell-based, human. As for the experimental part: as §1
Test [3] deals with PC5A. The test is described as follows: PC5A cell surface localization, FL-PC5A transfected HeLa cells. To be noted: HeLa cells transfected with FL-PC5A; heparin added to culture medium; non-permeabilizing. In kind it is cell-based. As to the method: (§2) Live-cell staining was carried out by incubating cells plated on coverslips with primary antibody diluted in medium without serum at 4° C. for 1 h. The cells were washed with PBS and fixed in 4% paraformaldehyde. Following washes with PBS, cells were incubated with fluorescent-conjugated secondary antibody diluted in 1% BSA, 0.02% TritonX, PBS, for 40 min at room temperature. Coverslips were then mounted and examined as above. For surface PC5A staining, cells were washed twice with ice-cold PBS, fixed with freshly prepared 3.7% paraformaldehyde for 10 min on ice, washed 3 times with PBS, incubated in 150 mM glycine for 5 min, washed once with PBS, blocked for 30 min in 1% BSA, incubated in primary antibody overnight at 4° C., washed 4 times with PBS, incubated with secondary antibody for 40 min at room temperature, and washed 4 times with PBS. Coverslips were mounted and examined as above.

Test [4] deals with PC5A. The test is described as follows: Endogenous PC5A cell surface localization, glioma cells. The test is classed as cell-based, human. To be noted: U251 and U343 cells; heparin added to the cells. As for the experimental part:
as §2

As for “Decanoyl-Arg-Val-Lys-Arg-chloromethylketone (Decanoyl-RVKR-CH2Cl) [dec-cmk]”, the “N-cadherin cleavage products in conditioned medium” value in test [1] and in test [2] was “no cleavage products detected” in each case.

For heparin, in the test with PC5A [3], the “PC5A detection on the cell surface” value is given as “not detected”. Further, the “PC5A detection at the cell surface” value with PC5A [4] was “not detected”.

Values taken from US20100310451A1, “ALTERED N-CADHERIN PROCESSING IN TUMOR CELLS BY FURIN AND PROPROTEIN CONVERTASE 5A (PC5A)” (THE ROYAL INSTITUTION FOR THE ADVANCEMENT OF LEARN, priority 2007, published 2010).
